# Reference: patent publication US9469652B2, “ERK inhibitors” (Eli Lilly and Company, priority 2014, dated 2016)
# How the values were obtained:
# [1] = system: RSK1 phosphorylation in HCT116 tumor xenograft; assay: In Vivo Target Inhibition (IVTI) Assay (pRSK1 ELISA Assay); set-up: species or system female athymic nude mice; conditions: oral dosing
# Description: The purpose of this assay is to measure the ability of a test compound to inhibit ERK1/2 substrate phosphorylation in an animal model Implant female athymic nude mice (22-25 g) from Harlan Laboratories with 5×10e^6 HCT116 colorectal cancer cells (ATCC, #CCL-247) subcutaneously in the right flank region in 200 μL of 1:1 Hank's Balanced Salt Solution (HBSS)+Matrigel solution. Measure tumor growth and body weight twice per week beginning the seventh day after the implantation. When tumor sizes reach 300-500 mm^3, randomize animals and group into groups of five animals. […]
# Pulverize tumors in liquid nitrogen and lyse in 1× lysis buffer (MSD, #R60TX-3) containing 1× halt protease & phosphatase inhibitor cocktail (Thermo Scientific, #0861281), 1 mM phenylmethanesulfonyl fluoride (PMSF) (Sigma, #93482-50ML-F) and 1 μM sodium metavanadate (Sigma, #590088) using Matrix D beads (MP Biomedical, #6913-500) in a FastPrep-24™ Cell Disrupter machine (MP Biomedical) in a cold room (4° C.). […] Cool plate to room temperature and measure the absorbance at or near 562 nm on a plate reader (Envision plate reader from Perkin Elmer). Subtract the average 562 nm absorbance measurement of the blank standard replicates from the 562 nm measurements of all other individual standard and unknown (cell or tumor lysate) sample replicates. […]
# [2] = system: human non-small cell lung cancer cells NCI-H2122 (KRAS_G12C); assay: In vivo combination study, NCI-H2122 NSCLC xenograft model; set-up: species or system female athymic nude mice; conditions: single agent
# Description: More specifically, the compound of Example 1 is tested in combination with either the pan-RAF inhibitor compound or the CDK4/6 inhibitor compound in HCT116, a KRAS mutant colorectal cancer xenograft model. Also, the compound of Example 1 is tested in combination with either the CDK4/6 inhibitor compound or DC101 in NCI-H441, A549, and NCI-H2122, KRAS mutant non-small cell lung cancer (NSCLC) xenograft models.
# Combination efficacy is also tested in three KRAS mutant NSCLC xenograft models including A549 (KRAS_G12S) in SCID mice as well as NCI-H441 (KRAS_G12V) and NCI-H2122 (KRAS_G12C) in athymic nude mice. Expand human non-small cell lung cancer cells NCI-H441 (ATCC, #CRL-5807) and NCI-H2122 (ATCC, #CRL-5985) in culture, harvest and inject 5×10e^6 cells in 200 μL of 1:1 HBSS+matrigel solution subcutaneously on to the rear right flank of female athymic nude mice (20-22 gm, Harlan Laboratories). Expand human non-small cell lung cancer cells A549 (ATCC, #CC1-185) in culture, harvest and inject 5×10e^6 cells in 200 μL of 1:1 HBSS+matrigel solution subcutaneously on to the rear right flank of female CB-17 SCID mice (18-20 gm, Taconic Farms). For all cell lines, measure tumor growth and body weight twice per week beginning the seventh day after the implantation. When average tumor sizes reach 200-300 mm^3, randomize animals and group into groups of five to seven animals. Prepare test compound in an appropriate vehicle (see below) and administer by oral gavage (compound of Example 1 and the CDK4/6 inhibitor compound) or intraperitoneally (DC101) for 21 to 28 days. Tumor response is determined by tumor volume measurement performed twice a week during the course of treatment. Vehicle used in these studies is 1% HEC/0.25% Tween® 80/0.05% Antifoam. The compound of Example 1 is formulated in 1% HEC/0.25% Tween® 80/0.05% Antifoam and the CDK4/6 inhibitor compound is formulated in 1% HEC in 25 mM sodium phosphate buffer, pH 2. […] In the same NCI-H441 xenograft model, DC101 in phosphate buffer is also administered intraperitoneally twice per week (BIW) as a single agent or in combination with the compound of Example 1, 50 mpk, QD for 28 days.
smiles,measurement,setting,value
"Cn1nccc1Nc1nccc(-c2cc3c(s2)C(C)(C)N(CCN2CCOCC2)C3=O)n1 [Example 1, 6,6-Dimethyl-2-{2-[(1-methyl-1H-pyrazol-5-yl)amino]pyrimidin-4-yl}-5-[2-(morpholin-4-yl)ethyl]-5,6-dihydro-4H-thieno[2,3-c]pyrrol-4-one]","TED50, pRSK1 inhibition in tumor",[1],16 mg/kg
same,Delta T/C %,"[2]; 50 mg/kg QD, oral, 28 days",59%
same,tumor growth inhibition,[2]; 50 mpk,41%
